# Patent publication US20240197761A1, “FUCOSYLATION AND IMMUNE MODULATION IN CANCER” (H. LEE MOFFITT CANCER CENTER AND RESEARCH INSTITUTE, INC., priority 2021, published 2024)
# System: SW1 tumors
# Test: Control vs. L-fucose ± FTY720 model: tumor growth and flow cytometric profiling of tumors and lymph nodes (Table 1)
# Type: in vivo, C3H/HeN mice
# Experimental: FIGS. 15A-15E Lymph node egress is necessary for L-fucose-triggered tumor suppression; L-fucose increases intratumoral CD4+T stem and central memory cells. (a) Immune subpopulations markers use to profile by flow cytometry. (b) Volumetric growth curves for SW1 tumors in C3H/HeN mice fed without (Ctl) or with L-fucose (LF) and treated with FTY720 (Ctl mice administered FTY720: (FTY); LF-supplemented mice administered FTY720: (L+F)). FTY720 was administered at 20 μg per mouse every 2 days starting on Day 12, just prior to the initiation of LF (c) Pie charts showing ratios of intratumoral or lymph node-resident CD4+ or CD8+T cell subpopulations, as well as DC subtypes from mice at Day 14, 28, and 42 (each pie chart represents 4-5 mice). Assessment of cytotoxic CD4+ T cell populations (CRTAM+) and cytotoxic CD8+ T cell populations (GrzB+) from tumors at Day 28 (d) and Day 42 (e). The tumor growth curves are means±SEM from ≥7 mice per group. *=p<0.05.
# Tumors of SW1 or SM1 melanoma cells from […] or C57BL/6 mice, respectively) were digested using 1× tumor digest buffer (0.5 mg/mL Collagenase I, 0.5 mg/mL Collagenase IV, 0.25 mg/mL Hyalyronidase V, 0.1 mg/mL DNAse I in HBSS (Millipore Sigma (St. Louis, MO)). Tumors were homogenized using the Miltenyi MACs dissociator. Red blood cells were lysed using ACK lysis buffer (Life Technologies, (Grand Island, NY)). Tumor homogenate cells were counted using a standard hemocytometer.
# Total TILs were gated first to single cells (based on forward scatter height vs width, followed by side scatter height vs. width). Live cells were gated from the Zombie negative population from the population above. TILs were gated based on splenocyte size from a control spleen. Individual immune subpopulations were sub-gated from the total TIL population using the following staining criteria: CD3+ for CD3+ T cells; CD3+/CD4+/CD8− for CD4+T cells; CD3+/CD4−/CD8+ for CD8+ T cells, CD11c+/CD11b+ for DCs; either NK1.1 (for C57/BL6 mice) or DX5 (for C3H/HeJ) for NK cells; CD11b+/GR1+ for MDSC-like cells; and F4/80+ for macrophages. Single-cell suspensions from tumor and spleen tissue were stained with Live/Dead Zombie NIR (Biolegend, (San Diego, CA)) at 1:1,000 in PBS for 20 min. Cell suspensions were spun down and stained with the following with antibodies at 0.5 μg/ml per antibody: APC anti-mouse CD3, Pacific Blue anti-mouse CD4, BV785 anti-mouse CD8, PerCP anti-mouse CD25, FITC anti-mouse F4/80, PeCy7 anti-mouse CD11c, PE anti-mouse NK1.1 or PE anti-mouse DX5, and PerCP-Cy5.5 anti-mouse CD11 b. After staining, the cells were washed and fixed (2% formaldehyde), followed by another wash and flow cytometric analysis. The compensation controls were prepared using 0.5 μg/mL of each antibody with UltraComp eBeads, (ThermoFisher Scientific (Waltham, MA)). All samples were subject to flow cytometric profiling using a LSR Flow Cytometer (BD Biosciences (San Jose, CA)) and analysis as indicated using FlowJo software (BD Biosciences (San Jose, CA)).
# SW1 or SM1 mouse melanoma cells were injected into syngeneic C3H/HeN (or NSG) female or C57BL/6 male mice, respectively. Cells were injected as follows: parental SW1 cells for FIG. 13A; parental SM1 cells for FIG. 13E; SW1 cells stably expressing either empty vector (EV) or mouse fucose kinase (mFuk) for FIG. 1L; and parental SW1 cells for FIG. 13M. FTY720 was administered at 20 μg every 2 days starting on Day 12, just prior to the initiation of LF, until endpoint.
structure (smiles),measurement,setting,value
"CCCCCCCCc1ccc(CCC(N)(CO)CO)cc1 [FTY720, reference compound]","CD4 central memory, average # of cells","Day 28, lymph nodes",1362.38 per 10^6 cells of total tumor
same,"CD4 effector memory, average # of cells","Day 28, lymph nodes",372.53 per 10^6 cells of total tumor
same,"CD4 naïve, average # of cells","Day 28, lymph nodes",20717.91 per 10^6 cells of total tumor
same,"CD4 stem central memory, average # of cells","Day 28, lymph nodes",24893.27 per 10^6 cells of total tumor
same,"CD8 central memory, average # of cells","Day 28, lymph nodes",85.45 per 10^6 cells of total tumor
same,"CD8 effector memory, average # of cells","Day 28, lymph nodes",421.08 per 10^6 cells of total tumor
same,"CD8 naïve, average # of cells","Day 28, lymph nodes",6153.14 per 10^6 cells of total tumor
same,"CD8 stem central memory, average # of cells","Day 28, lymph nodes",311.59 per 10^6 cells of total tumor
same,"cDC1, average # of cells","Day 28, lymph nodes",147.79 per 10^6 cells of total tumor
same,"cDC2, average # of cells","Day 28, lymph nodes",448.71 per 10^6 cells of total tumor
same,"moDC, average # of cells","Day 28, lymph nodes",41.74 per 10^6 cells of total tumor
same,"CD4 central memory, average # of cells","Day 28, tumors",11.56 per 10^6 cells of total tumor
same,"CD4 effector memory, average # of cells","Day 28, tumors",336.07 per 10^6 cells of total tumor
same,"CD4 naïve, average # of cells","Day 28, tumors",60.03 per 10^6 cells of total tumor
same,"CD4 stem central memory, average # of cells","Day 28, tumors",0.87 per 10^6 cells of total tumor
same,"CD8 central memory, average # of cells","Day 28, tumors",1.22 per 10^6 cells of total tumor
same,"CD8 effector memory, average # of cells","Day 28, tumors",54.02 per 10^6 cells of total tumor
same,"CD8 naïve, average # of cells","Day 28, tumors",24.54 per 10^6 cells of total tumor
same,"CD8 stem central memory, average # of cells","Day 28, tumors",0.00 per 10^6 cells of total tumor
same,"cDC1, average # of cells","Day 28, tumors",463.94 per 10^6 cells of total tumor
same,"cDC2, average # of cells","Day 28, tumors",8181.08 per 10^6 cells of total tumor
same,"moDC, average # of cells","Day 28, tumors",7526.28 per 10^6 cells of total tumor
same,"CD4 central memory, average # of cells","Day 42, lymph nodes",949.35 per 10^6 cells of total tumor
same,"CD4 effector memory, average # of cells","Day 42, lymph nodes",3499.07 per 10^6 cells of total tumor
same,"CD4 naïve, average # of cells","Day 42, lymph nodes",65491.17 per 10^6 cells of total tumor
same,"CD4 stem central memory, average # of cells","Day 42, lymph nodes",742.12 per 10^6 cells of total tumor
same,"CD8 central memory, average # of cells","Day 42, lymph nodes",949.35 per 10^6 cells of total tumor
same,"CD8 effector memory, average # of cells","Day 42, lymph nodes",3499.07 per 10^6 cells of total tumor
same,"CD8 naïve, average # of cells","Day 42, lymph nodes",65491.17 per 10^6 cells of total tumor
same,"CD8 stem central memory, average # of cells","Day 42, lymph nodes",742.12 per 10^6 cells of total tumor
same,"cDC1, average # of cells","Day 42, lymph nodes",1731.49 per 10^6 cells of total tumor
same,"cDC2, average # of cells","Day 42, lymph nodes",3881.72 per 10^6 cells of total tumor
same,"moDC, average # of cells","Day 42, lymph nodes",1219.26 per 10^6 cells of total tumor
same,"CD4 central memory, average # of cells","Day 42, tumors",32.54 per 10^6 cells of total tumor
same,"CD4 effector memory, average # of cells","Day 42, tumors",160.89 per 10^6 cells of total tumor
same,"CD4 naïve, average # of cells","Day 42, tumors",44.22 per 10^6 cells of total tumor
same,"CD4 stem central memory, average # of cells","Day 42, tumors",18.52 per 10^6 cells of total tumor
same,"CD8 central memory, average # of cells","Day 42, tumors",5.73 per 10^6 cells of total tumor
same,"CD8 effector memory, average # of cells","Day 42, tumors",220.02 per 10^6 cells of total tumor
same,"CD8 naïve, average # of cells","Day 42, tumors",19.42 per 10^6 cells of total tumor
same,"CD8 stem central memory, average # of cells","Day 42, tumors",0.00 per 10^6 cells of total tumor
same,"cDC1, average # of cells","Day 42, tumors",607.65 per 10^6 cells of total tumor
same,"cDC2, average # of cells","Day 42, tumors",279.84 per 10^6 cells of total tumor
same,"moDC, average # of cells","Day 42, tumors",197.56 per 10^6 cells of total tumor
same,intratumoral CD4+T central and effector memory subpopulations,FIG. 15c,abrogated
